# Experimental data taken from patent US20100129319A1, “TREATMENT OF DISEASE OR INJURY OF THE NERVOUS SYSTEM USING AGENTS THAT DECREASE THE ACTIVITY OF THE MELANOCORTIN 4 RECEPTOR” (priority 2006, published 2010).
# Bridges are numbered along the chain shown (N, C = ends). [ ]: non-standard residue; d: D form. d2Nal = N[C@H](Cc1ccc2ccccc2c1)C(=O)O; dPhe(diCl) = diCl-D-Phe
# Columns and labels:
# [1] = target: melanocortin 4 receptor (MC4R), murine (Mus musculus) (UniProt P56450); assay: cell-based or functional assay
# Sequence of melanocortin 4 receptor (MC4R), murine (Mus musculus) (P56450 whole entry): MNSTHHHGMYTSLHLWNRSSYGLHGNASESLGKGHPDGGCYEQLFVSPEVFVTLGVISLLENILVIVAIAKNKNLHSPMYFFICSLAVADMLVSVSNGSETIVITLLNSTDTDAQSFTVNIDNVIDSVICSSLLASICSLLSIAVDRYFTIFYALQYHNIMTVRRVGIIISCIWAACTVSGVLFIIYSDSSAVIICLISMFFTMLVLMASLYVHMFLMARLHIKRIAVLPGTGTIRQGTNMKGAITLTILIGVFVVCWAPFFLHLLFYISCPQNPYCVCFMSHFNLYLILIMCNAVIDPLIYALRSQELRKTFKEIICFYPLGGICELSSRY
# [2] = tested on: adult neural stem cells; assay: ATP assay (intracellular ATP, cell number) in suspension cultures; type: cell-based, mice; conditions: for ATP levels: 1-100 nM, 3 days, suspension cultures, vs control
# Description: (§1) The anterior lateral wall of the lateral ventricle wall (LVW) of 5 week old mice was enzymatically dissociated at 37° C. for 20 min in 0.8 mg/mL hyaluronidase and 0.5 mg/mL trypsin in DMEM containing 4.5 mg/mL glucose and 80 units/mL DNase. The cells were diluted in 5 mL of DMEM/F12 medium (containing B27 supplement, […] HEPES Ph 7.4, 100 units/mL penicillin, and 100 micrograms/mL streptomycin). After passing through a 70 micron strainer, the cells were pelleted at 240×g for 5 minutes, washed and recentrifuged. The supernatant was subsequently removed and the cells resuspended in medium supplemented with 20 nanogram/mL EGF, plated out in culture dishes and incubated at 37° C. Neurosphere cultures were ready to be split approximately 7 days after plating.
# (§2) To split the neurosphere cultures, neurospheres were collected by centrifugation at 240×g for 5 minutes. The supernatant was discarded and the neurospheres were resuspended in 0.5 mL Trypsin/EDTA in HBSS (1×) and incubated at 37° C. for 2 minutes. During this period, the neurospheres were triturated gently to aid dissociation. Following a further 2 min incubation at 37° C. and trituration, 2 volumes of DMEM-F12+B27 medium were added. The cells were pelleted at 220×g for 4 min and resuspended in DMEM/F12+B27-medium containing 10 ng/mL EGF and 5 ng/mL bFGF. Subsequently the cultures were plated out and incubated at 37° C.
# Cells were harvested split as in example 1, except for omission of the growth factors in the media, and seeded as suspension cells, at a density of 10,000 cells/well on 96-well plates in DMEM/F12 supplemented with 1, 10 or 100 nM MC4R antagonist or without (control cells). Alternatively, adherent cells were seeded at a density of 30,000 cells/well on poly-D-lysine-coated 96-well plates in DMEM/F12 supplemented with 1% fetal calf serum (FCS). […]
# The following experiment was performed in quadruplicate. […] Intracellular ATP was measured using a Cell Viability kit SL according to the manufacturer's instructions (#188-441, BioThema, Sweden). […]
# [3] = target: MC3 (Homo sapiens, UniProt P41968); conditions: printed in the column Selectivity (over MC3); cited from earlier work
# Sequence of MC3 (P41968 whole entry, species assumed): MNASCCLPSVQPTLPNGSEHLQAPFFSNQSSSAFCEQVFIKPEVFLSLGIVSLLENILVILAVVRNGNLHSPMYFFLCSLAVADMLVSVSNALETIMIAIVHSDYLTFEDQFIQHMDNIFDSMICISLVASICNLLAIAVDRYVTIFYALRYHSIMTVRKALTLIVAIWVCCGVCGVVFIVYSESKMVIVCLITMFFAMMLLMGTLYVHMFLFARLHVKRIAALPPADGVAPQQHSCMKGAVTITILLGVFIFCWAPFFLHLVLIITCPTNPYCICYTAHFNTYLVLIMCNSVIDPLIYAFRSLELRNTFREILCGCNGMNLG
# [4] = target: MC4R (Homo sapiens, UniProt P32245); conditions: cited from earlier work; for Selectivity (over MC3): MC4R over MC3; for Ki: read-out: Affinity for MC4R (Ki)
# Sequence of MC4R (P32245 whole entry, species assumed): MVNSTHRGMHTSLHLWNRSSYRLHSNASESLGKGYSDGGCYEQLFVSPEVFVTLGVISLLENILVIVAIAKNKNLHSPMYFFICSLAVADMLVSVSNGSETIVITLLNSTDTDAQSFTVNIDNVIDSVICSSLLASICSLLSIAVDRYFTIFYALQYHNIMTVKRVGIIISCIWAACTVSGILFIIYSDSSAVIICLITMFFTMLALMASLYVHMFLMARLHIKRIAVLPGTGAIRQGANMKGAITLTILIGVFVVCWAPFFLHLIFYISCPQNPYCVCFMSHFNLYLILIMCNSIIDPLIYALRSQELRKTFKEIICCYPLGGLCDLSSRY
# [5] = i.c.v. 2×1 nanomoles daily for 6 days or 0.16 nanomoles per hour for 2 weeks; cited from earlier work
# [6] = tested on: adult neural stem cells; assay: BrdU incorporation ELISA in adherent cultures; type: cell-based, mice; conditions: 1-100 nM, 3 days, vs control
# Description: as §1
# as §2, with “The cells were pelleted at 220×g for 4 min and resuspended in DMEM/F12+B27-medium containing 10 ng/mL EGF and 5 ng/mL bFGF. Subsequently the cultures were plated out and incubated at 37° C.” left out
# DNA synthesis is commonly used to measure cell proliferation. […] After incorporation if the thymidine analogue into DNA, BrdU was detected by immunoassay. […]
# [7] = tested on: neuronal stem/progenitor cell proliferation in the SVZ; conditions: i.c.v. infusion of 6.25, 62.5 or 625 ng/day for two weeks
# Description: To further characterize MC4R antagonist-stimulation of neogenesis, in vivo studies were performed. The effect of HS014 on proliferation (BrdU incorporation) was tested over a two week period at doses ranging from 6.25 to 625 ng/24h. Administration was done by i.c.v. infusion into the right lateral ventricle. BrdU was administered together with HS014 i.c.v. The animal's body weight was measured throughout the experiment. After termination of the experiment, BrdU expression was detected by immunohistochemistry on brain sections from the subependymal layer of the lateral ventricle wall as well as on the sub granular cells in dentate gyrus. […]
# As an additional marker for understanding whether a dose that is effective in eliciting a response controlled by the central nervous system, weight gain was also monitored throughout the experiment by weighing the animals. […]
# At the end of the experiment the rats were anaesthetized with sodium pentobarbital (120 mg, i.p.) and transcardially perfused with 90 ml of 0.9% NaCl and 4% PFA solution. […] As detection, Vectastain Elite (Vector) 1/100 was used and finally, developing was done by Sigma fast DAB tablet monitored in microscope, sections were then counterstained by HTX followed by dehydration and clearing.
# Quantification was performed using a Nikon eclipse E6000 microscope at a magnification of 40×. […]
# [8] = tested on: 6-OHDA-lesioned rat model of Parkinson's disease; assay: Amphetamine-induced rotation in the 6-OHDA-lesioned rat model of Parkinson's disease (Example 5); type: in vivo; conditions: 62.5 ng/day i.c.v. for 2 weeks
# Source text: In this study, the neurorestorative action of HS014 (from Sigma Aldrich) was investigated in the 6-hydroxydopamine (6-OHDA)-lesioned rat model of Parkinson's disease where the animals have a partial, unilateral loss of dopaminergic neurons. The lesion is induced by a single injection of 6-OHDA in the median forebrain bundle (see below). Upon amphetamine stimulation, the lesioned animals will display ipsiversive rotational behavior due to the imbalance in dopamine release resulting from the unilateral loss of dopaminergic cells. This allows the functional effects of a compound tested in this model to be quantified by counting the number of amphetamine-induced rotations.
# Male Sprague-Dawley rats weighing 280-320 g were housed in a temperature-controlled room under a 12 h light/dark cycle with free access to food and water. Thirty minutes prior to surgery, animals were injected intraperitoneally with pargyline (5 mg/kg) and desipramine (25 mg/kg). Rats were then placed in a stereotactic frame under general anaesthesia (Halothane). A small bur-hole was made in the right side of the skull. Each animal was given a unilateral injection of 4 μg, 6-OHDA (in 2 μl sterile water with 0.1% ascorbic acid) into the right medial forebrain bundle at co-ordinates −2.8 mm from bregma, 2 mm lateral to the midline, and 8.6 mm below skull according to the atlas of Paxinos and Watson. The 6-OHDA injection was made over a 5 min period using a 5 μl Hamilton syringe. The rats were allowed to recover for 5 weeks following the lesion. The animals were then implanted with an Alzet minipump attached to a cannula to allow infusion of HS014 or vehicle into the right lateral ventricle over a period of 2 weeks. The Alzet minipump was removed […].
# 24 rats were divided into 2 groups, individual rats being randomly assigned to a treatment group based on their baseline rotation (5 weeks post lesion) so they were equally distributed. […] Rotational activity was measured by counting the total number of turns for the duration of the experiment. […] Body weight was also recorded weekly. […]
# [9] = Body weight during i.c.v. infusion (Example 4); type: in vivo, rats
# Description: BrdU was administered together with HS014 i.c.v.
compound,measurement,setting,value
Agouti (87-132) (peptide),"proliferation in the ATP-assay, at 400 nM (times control)",[1],1.6
"Agouti (87-132): endogenous MC4R antagonist peptide analogue (TPLSAPCVATRNSCKPPAPACCDPCASCQCRFFRSACSCRVLSLNC; UniProt P42127 87-132, looked up, fragment)",increase in proliferation (ATP-assay),[2]; at 400 nM,1.6 times control
"NCCC(=O)N[C@H](Cc1ccc(Cl)cc1Cl)C(=O)N1CCN(c2ccccc2CNCCc2cccs2)CC1 [Compound10, 4-{(2R)-[3-Aminopropionylamido]-3-(2,4-dichlorophenyl)propionyl}-1-{2-[(2-thienyl)ethylaminomethyl]phenyl}piperazine]",potency in cAMP assay,[3],No potency i cAMP
"[acetyl group]-Cys-Glu-His-(diCl-D-Phe)-Arg-Trp-Gly-Cys-Pro-Pro-Lys-Asp-[amide group] (Ac-CEH[dPhe(diCl)]RWGCPPKD-NH2; not fully specified (bridges); also: cyclic, bridge not given here) [HS028]",Selectivity (over MC3),[4],80-fold
same,Ki,[4],0.95 nM
same,ATP levels,[2],increase ATP levels
HS024,Selectivity (over MC3),[4],20-fold
same,Ki,[4],0.29 nM
[acetyl group]-Cys-Glu-His-(D-2-Nal)-Arg-Trp-Gly-Cys-Pro-Pro-Lys-Asp-[amide group] (Ac-CEH[d2Nal]RWGCPPKD-NH2; disulfide 1-8 (inferred)) [HS014],Selectivity (over MC3),[4],10-fold
same,Ki,[4],3.2 nM
same,food intake and body weight,[5],considerable increase in food intake and body weight
same,BrdU incorporation,[6],increase BrdU incorporation
same,ATP levels,[2],increase ATP levels
same,"dose with greatest effect on neuronal stem/progenitor cell proliferation (BrdU counts, SVZ)",[7],62.5 ng/day
same,persistence of improvement after administration was stopped,[8],maintained for at least two weeks
same,rotation at week 4 compared to pre-pump levels,[8]; then 2 weeks without treatment,approximately 30%
same,net ipsiversive rotations at weeks 1-4 compared to the pre-pump response,[8]; all P<0.01,significant reduction
same,dose at which weight gain was first significant,[9]; i.c.v. infusion for two weeks,62.5 ng/day
same,dose with greatest weight gain,[9]; i.c.v. infusion for two weeks,625 ng/day
same,weight gain,"[9]; i.c.v. infusion of 6.25, 62.5 or 625 ng/day for two weeks",increased in a dose-dependent manner
